Reference: PMC10817945, “Design of a novel analogue peptide with potent antibiofilm activities against Staphylococcus aureus based upon a sapecin B-derived peptide” (Scientific Reports, 2024)
Converted amounts (≈) assume the structure as drawn. Read-outs that look alike come from different tables or passages of the source. Non-standard residues stand in square brackets, D forms with d. Residues, ends and D or L forms follow the SMILES beside them.

What was measured:
S. aureus strains [1] = format: cell-based, Staphylococcus aureus; conditions: for inhibition of biofilm formation: strains, 24 h
Method: (§1) To investigate the inhibitory effect of KLK and mKLK peptides on bacterial surface attachment and biofilm formation, the bacterial suspension in TSB with a concentration of 10^7 CFU/ml was prepared from overnight culture. An aliquot of 100 μl of the bacterial suspension was added to wells of 96-well plates containing 100 μl of the peptides solution with concentrations of 1×, 1/2× and 1/4× MIC, resulting in the final peptides concentrations of 1/2×, 1/4× and 1/8× MIC. To investigate the inhibitory effect of the peptides on surface attachment the incubation was performed at 37 °C for 2 h and to evaluate their inhibitory activity on biofilm formation the incubation was performed at 37 °C for 24 h. The wells containing only TSB medium were used as negative controls. After incubation, the contents of the wells were removed and washed three times with PBS and the wells were stained with 200 μl of 0.1% crystal violet for 20 min. The plates were washed again and excess dye was removed. A volume of 200 μl of 95% ethanol was added to each well for 20 min and absorbance was measured at 570 nm by a microplate reader.

S. aureus strains [2] = assay: Inhibition of bacterial surface attachment (crystal violet); format: cell-based, Staphylococcus aureus
Method: as §1

S. aureus isolates = format: cell-based, Staphylococcus aureus
Method: Minimum inhibitory concentrations (MIC) of KLK, mKLK, and vancomycin were determined using microdilution broth assay according to clinical and laboratory standards institute (CLSI) guidelines with some modifications. Briefly, overnight cultures were diluted in Muller-Hinton broth (MHB; Merck, Germany) to achieve a final density of 5 × 10^5 CFU/ml. A volume of 100 μl of bacterial suspension was added to wells of sterile 96-well plates containing 100 μl of two-fold peptide dilutions, ranging from 0.25 to 256 µg/ml. Vancomycin was used as a positive control in this assay. […] MBC was determined by removing samples from wells with no visible growth, serially diluting, and plating on Mueller Hinton (MH) agar plates for CFU counting.

[3] = system: one MRSA and reference strain (ATCC25923); assay: Time-kill kinetics assay
Method: The peptide-free control was included for each strain. Following incubation at 37 °C for 0, 0.25, 0.5, 1, 2, 4, 5, and 24 h, each sample was serially diluted, plated onto Mueller–Hinton (MH) agar (Merck, Germany) plates and incubated at 37 °C. The viable plate count method was performed after incubation for 24 h and the counts were expressed as Log CFU/ml[44].

[4] = system: preformed S. aureus biofilms; format: cell-based, Staphylococcus aureus
Method: The eradicative activity of KLK and mKLK peptides against preformed S. aureus biofilms was evaluated by determining MBEC, as previously described. The 24-h biofilms developed in TSB in a 96-well plate were washed three times with 200 μl PBS solution. Concentrations of the peptides ranging from 2 to 1024 µg/ml were prepared. A volume of 100 μl of each concentration was added to a corresponding well, and plates were incubated for 18–20 h at 37 °C. Then, wells were washed with sterile PBS solution, and 100 μl of PBS solution was added. The wells were thoroughly scraped with a sterile pipette tip, vortexed and sonicated to release the biofilm cells from the well surface. Subsequently, 10 μl of well contents were plated on MHA. Colonies were counted after 20 h at 37 °C. The MBEC was defined as the lowest concentration of peptide that inhibited bacterial regrowth.

## CC(C)C[C@@H](NC(=O)[C@H](N)Cc1c[nH]c2ccccc12)C(=O)N[C@H](Cc1c[nH]c2ccccc12)C(=O)N[C@H](C)C(=O)N[C@H](CC(C)C)C(=O)N[C@H](CC(C)C)C(=O)N[C@H](CCCCN)C(=O)N[C@H](CC(C)C)C(=O)N[C@H](CC(C)C)C(=O)N[C@H](CCCCN)C(=O)N[C@H](CC(C)C)C(=O)N[C@H](CCCCN)C(N)=O [mKLK] (H-[dW][dL][dW][dA][dL][dL][dK][dL][dL][dK][dL][dK]-NH2; N-terminus assumed)
S. aureus strains [1]; MSSA-1, 1/8MIC, control 2.190±0.01
  crystal violet absorbance at 570 nm, biofilm formation, Mean±SD: 0.622±0.02
S. aureus strains [1]; MSSA-2, 1/2MIC, control 1.802±0.02
  crystal violet absorbance at 570 nm, biofilm formation, Mean±SD: 0.183±0.01
S. aureus strains [1]; MSSA-2, 1/4MIC, control 1.802±0.02
  crystal violet absorbance at 570 nm, biofilm formation, Mean±SD: 0.225±0.01
S. aureus strains [1]; MSSA-2, 1/8MIC, control 1.802±0.02
  crystal violet absorbance at 570 nm, biofilm formation, Mean±SD: 0.558±0.05
S. aureus strains [1]; 2
  inhibition of biofilm formation: 80-91%
S. aureus strains [1]; 4
  inhibition of biofilm formation: 76-89%
S. aureus strains [1]; 8
  inhibition of biofilm formation: 63-73%
S. aureus strains [2]; ATCC25923, 1/4MIC, control 2.136±0.01
  crystal violet absorbance at 570 nm, bacterial attachment, Mean±SD: 1.789±0.01
S. aureus strains [2]; ATCC25923, 1/8MIC, control 2.136±0.01
  crystal violet absorbance at 570 nm, bacterial attachment, Mean±SD: 1.952±0.07
S. aureus strains [2]; MRSA-1, 1/2MIC, control 1.861±0.02
  crystal violet absorbance at 570 nm, bacterial attachment, Mean±SD: 1.361±0.03
S. aureus strains [2]; MRSA-1, 1/4MIC, control 1.861±0.02
  crystal violet absorbance at 570 nm, bacterial attachment, Mean±SD: 1.599±0.08
S. aureus strains [2]; MRSA-1, 1/8MIC, control 1.861±0.02
  crystal violet absorbance at 570 nm, bacterial attachment, Mean±SD: 1.723±0.02
S. aureus strains [2]; MRSA-2, 1/2MIC, control 2.311±0.005
  crystal violet absorbance at 570 nm, bacterial attachment, Mean±SD: 1.496±0.01
S. aureus strains [2]; MRSA-2, 1/4MIC, control 2.311±0.005
  crystal violet absorbance at 570 nm, bacterial attachment, Mean±SD: 1.811±0.19
S. aureus strains [2]; MRSA-2, 1/8MIC, control 2.311±0.005
  crystal violet absorbance at 570 nm, bacterial attachment, Mean±SD: 1.906±0.13
S. aureus strains [2]; MRSA-3, 1/2MIC, control 1.491±0.06
  crystal violet absorbance at 570 nm, bacterial attachment, Mean±SD: 0.944±0.07
S. aureus strains [2]; MRSA-3, 1/4MIC, control 1.491±0.06
  crystal violet absorbance at 570 nm, bacterial attachment, Mean±SD: 1.078±0.07
S. aureus strains [2]; MRSA-3, 1/8MIC, control 1.491±0.06
  crystal violet absorbance at 570 nm, bacterial attachment, Mean±SD: 1.119±0.12
S. aureus strains [2]; MSSA-1, 1/2MIC, control 2.107±0.08
  crystal violet absorbance at 570 nm, bacterial attachment, Mean±SD: 1.229±0.07
S. aureus strains [2]; MSSA-1, 1/4MIC, control 2.107±0.08
  crystal violet absorbance at 570 nm, bacterial attachment, Mean±SD: 1.419±0.01
S. aureus strains [2]; MSSA-1, 1/8MIC, control 2.107±0.08
  crystal violet absorbance at 570 nm, bacterial attachment, Mean±SD: 1.592±0.36
S. aureus strains [2]; MSSA-2, 1/2MIC, control 2.061±0.01
  crystal violet absorbance at 570 nm, bacterial attachment, Mean±SD: 1.199±0.09
S. aureus strains [2]; MSSA-2, 1/8MIC, control 2.061±0.01
  crystal violet absorbance at 570 nm, bacterial attachment, Mean±SD: 1.576±0.46
S. aureus isolates; ATCC25923
  MBC: 4 µg/mL (≈ 2.62 µM)
S. aureus isolates; MRSA-1
  MBC: 8 µg/mL (≈ 5.25 µM)
S. aureus isolates; MRSA-2
  MBC: 8 µg/mL (≈ 5.25 µM)
S. aureus isolates; MRSA-3
  MBC: 8 µg/mL (≈ 5.25 µM)
S. aureus isolates; MSSA-1
  MBC: 4 µg/mL (≈ 2.62 µM)
S. aureus isolates; MSSA-2
  MBC: 4 µg/mL (≈ 2.62 µM)
[3]; ATCC 25923, 1 × MIC (4 μg/ml)
  time after which no regrowth was observed: 30 min
[3]; ATCC 25923, 1 × MIC, during 15 min
  reduction in viable cell count: ~1 log
[3]; ATCC 25923, 2 × MIC (8 μg/ml)
  time after which no regrowth was observed: 15 min
[3]; MRSA, 1 × MIC
  time after which no regrowth was observed: 240 min
[3]; MRSA, 1 × MIC (8 μg/ml), within 2 h
  reduction in viable cell count: 2 log
[4]; ATCC25923
  MBEC: 64 µg/mL
[4]; MRSA-1
  MBEC: 64 µg/mL
[4]; MRSA-2
  MBEC: 128 µg/mL
[4]; MRSA-3
  MBEC: 64 µg/mL
[4]; MSSA-1
  MBEC: 32 µg/mL
[4]; MSSA-2
  MBEC: 32 µg/mL
[4]; preformed biofilms
  MBEC, range over isolates: 32 to 128 µg/mL
